# Test system: MAP-induced hyperlocomotion in male ICR mice
# Experiment: Inhibition of methamphetamine (MAP)-induced hyperlocomotion
# Type: in vivo
# Details: compound 10 mg/kg p.o. 60 min before MAP 2 mg/kg s.c., FIG. 1
# Method: Male ICR mice were supplied by CLEA Japan, Inc (Japan). After arrival to the vivarium, animals were allowed a minimum of 1 week for acclimation. They were housed under a 12:12-h light/dark cycle in a temperature- and humidity-controlled laboratory and allowed food and water ad libitum.
# A test compound was suspended in 0.5% methylcellulose in distilled water and orally administered (p.o.). Methamphetamine (Dainippon Sumitomo Pharma Co., Ltd.) was dissolved in saline and subcutaneously administered (s.c.). All drugs were dosed in a volume of 10 mL/kg body weight for mice.
# The widely used animal models of psychosis have been the measurement of the extent of hyperlocomotion induced by psychostimulants (e.g., amphetamine, cocaine, methamphetamine, MK-801 and phencyclidine) in rodents (Psychopharmacology 1999, vol. 145: 237-250). 4 compounds (A, B, C, D) were tested for its ability to antagonize MAP-induced hyperlocomotion in mice. Male ICR mice were habituated in the locomotor chambers with infrared sensors (BrainScienceldea Co., Ltd. Japan) to the experiment. After the habituation, animals were treated with either vehicle or the compounds (10 mg/kg, p.o.), and MAP (2 mg/kg, s.c.) was administrated 60 min later. Locomotion activities were measured, and accumulated counts (120 min after administration of MAP) were calculated in each treatment group. All data were represented as means plus the standard errors of the means (n=3-9) and analyzed using Student's t-test with significance set at **P<0.01 and ***P<0.001 or Welch's t-test with significance set at ^$P<0.05, ^$$P<0.01 and ^$$$P<0.001.
row,SMILES,inhibition of MAP-induced hyperlocomotion (accumulated locomotion counts 0-120 min)
1,"CC1=CN2CCS(=O)(=O)N=C2C(c2ccc(OC3CCCCC3)cc2)=N1 [C, 9-[4-(cyclohexyloxy)phenyl]-7-methyl-3,4-dihydropyrazino[2,1-c][1,2,4]thiadiazine 2,2-dioxide]",significant inhibition
2,"O=S1(=O)CCN2C=CC=C(c3ccc(OC4CCCCC4)cc3)C2=N1 [D, 9-[4-(cyclohexyloxy)phenyl]-3,4-dihydropyrido[2,1-c][1,2,4]thiadiazine 2,2-dioxide]",significant inhibition
3,"Cc1ccc(Oc2ccc(C3=CC=CN4CCS(=O)(=O)N=C34)cc2)cc1 [B, 9-[4-(4-methylphenoxy)phenyl]-3,4-dihydropyrido[2,1-c][1,2,4]thiadiazine 2,2-dioxide]",significant inhibition
4,"O=S1(=O)CCN2C=CC=C(c3ccc(Oc4ccccc4)cc3)C2=N1 [A, 9-(4-phenoxyphenyl)-3,4-dihydropyrido[2,1-c][1,2,4]thiadiazine 2,2-dioxide]",significant inhibition

# — patent publication US9499568B2, “Heterocyclic compound and use thereof” (Takeda Pharmaceutical Company Limited, priority 2010, dated 2016)
